Legend:
[1] = target: Melanocortin receptor 5 (Homo sapiens, UniProt P33032); experiment: Displacement of [125I]NDP-MSH from human recombinant MC5 receptor expressed in Sf9 cells
[2] = target: Melanocyte-stimulating hormone receptor (Mus musculus, UniProt Q01727); experiment: Displacement of [125I]NDP-MSH from MC1 receptor in mouse B16 cells; type: cell-based
[3] = target: Melanocortin receptor 3 (Homo sapiens, UniProt P41968); experiment: Displacement of [125I]NDP-MSH from human recombinant MC3 receptor expressed in Sf9 cells
[4] = target: Melanocortin receptor 4 (Homo sapiens, UniProt P32245); experiment: Displacement of [125I]NDP-MSH from human recombinant MC4 receptor expressed in Sf9 cells
Chain of Melanocortin receptor 4 (P32245 whole entry): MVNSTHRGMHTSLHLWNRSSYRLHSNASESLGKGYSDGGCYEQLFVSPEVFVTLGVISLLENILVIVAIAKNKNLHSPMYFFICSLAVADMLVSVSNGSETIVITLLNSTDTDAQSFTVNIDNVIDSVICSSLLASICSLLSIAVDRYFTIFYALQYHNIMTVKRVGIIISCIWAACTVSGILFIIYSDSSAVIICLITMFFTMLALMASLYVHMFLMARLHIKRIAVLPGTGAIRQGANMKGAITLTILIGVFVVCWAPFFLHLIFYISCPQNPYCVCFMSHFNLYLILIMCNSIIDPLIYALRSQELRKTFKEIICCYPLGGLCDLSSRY

Chain of Melanocortin receptor 5 (P33032 whole entry): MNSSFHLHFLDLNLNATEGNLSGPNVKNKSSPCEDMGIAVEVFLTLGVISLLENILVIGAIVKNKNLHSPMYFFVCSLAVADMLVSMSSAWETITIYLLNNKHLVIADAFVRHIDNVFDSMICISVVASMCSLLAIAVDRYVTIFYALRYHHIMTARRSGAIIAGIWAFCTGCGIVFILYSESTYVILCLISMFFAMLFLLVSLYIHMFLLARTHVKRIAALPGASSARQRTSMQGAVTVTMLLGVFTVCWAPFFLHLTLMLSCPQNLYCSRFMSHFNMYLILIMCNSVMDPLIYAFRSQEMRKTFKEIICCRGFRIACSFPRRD
Chain of Melanocyte-stimulating hormone receptor (Q01727 whole entry): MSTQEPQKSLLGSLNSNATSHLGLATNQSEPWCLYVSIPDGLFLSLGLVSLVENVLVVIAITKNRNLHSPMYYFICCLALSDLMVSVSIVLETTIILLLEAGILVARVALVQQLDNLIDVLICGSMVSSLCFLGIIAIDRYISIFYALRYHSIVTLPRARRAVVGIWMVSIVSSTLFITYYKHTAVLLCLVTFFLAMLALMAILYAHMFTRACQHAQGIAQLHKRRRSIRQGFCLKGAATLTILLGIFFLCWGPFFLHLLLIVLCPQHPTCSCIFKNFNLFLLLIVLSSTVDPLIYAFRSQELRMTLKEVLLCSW
Chain of Melanocortin receptor 3 (P41968 whole entry): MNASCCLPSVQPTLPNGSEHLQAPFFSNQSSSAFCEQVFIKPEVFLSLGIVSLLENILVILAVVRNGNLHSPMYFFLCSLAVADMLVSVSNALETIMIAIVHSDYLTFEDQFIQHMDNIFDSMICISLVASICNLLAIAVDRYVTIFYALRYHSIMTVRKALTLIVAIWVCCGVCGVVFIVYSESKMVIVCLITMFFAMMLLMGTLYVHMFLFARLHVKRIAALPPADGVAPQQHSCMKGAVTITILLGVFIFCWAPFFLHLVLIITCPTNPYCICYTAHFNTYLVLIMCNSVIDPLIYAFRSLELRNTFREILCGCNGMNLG

Ki [1] [µM] | Ki [2] [µM] | Ki [3] [µM] | Ki [4] [µM] | SMILES
0.93 | 0.85 | 24 | 7.4 | C/C(=C\c1ccccc1)CN(CCCN)C(=O)c1c[nH]c2ccccc12
 | 1.5 | 289 | 5.9 | NC1CCC(CC2CCC(N(C/C(Cl)=C/c3ccccc3)C(=O)COc3ccc4ccccc4c3)CC2)CC1 (stereo in doubt; form 2)
10 | 1.3 | 220 | 2.1 | Cc1ccc(CN(C(=O)CCCc2c[nH]c3ccccc23)C2CCC(CC3CCC(N)CC3)CC2)cc1 (configuration not stated)
29 | 5 | 42 | 7.4 | NCCCCCCCN(C/C(Cl)=C/c1ccccc1)C(=O)CCCc1c[nH]c2ccccc12
6.7 | 3.3 | 27 | 7.1 | NCCCCCN(C/C=C\c1ccccc1)C(=O)CCc1c(Cc2ccc(O)cc2)[nH]c2ccccc12
28 | 35 | 228 | 150 | N=C(N)NCCCN(Cc1ccc2ccccc2c1)C(=O)Cc1c[nH]c2ccccc12
18 | 0.94 | 94 | 1.3 | COc1cc(Br)c(/C=C/CN(C(=O)CCCc2c(Cc3ccc(O)cc3)[nH]c3ccccc23)C2CCC(CC3CCC(N)CC3)CC2)cc1OC (configuration not stated)
11 | 3.3 | 51 | 8 | COc1cc(O)ccc1/C=C/CN(C(=O)CCCc1c[nH]c2ccccc12)C1CCC(CC2CCC(N)CC2)CC1 (stereo in doubt; form 2)
12 | 17 | 172 | 23 | NCCCN(C/C=C/c1ccccc1)C(=O)c1c[nH]c2ccccc12
12 | 6 | 48 | 11 | NCCCN(C(=O)/C=C/c1c[nH]c2ccccc12)C1CCc2ccccc2C1 (configuration not stated)
58 | 1.8 | 9.1 | 6.2 | C/C(=C\c1ccccc1)CN(CCCN)C(=O)C(=O)c1c[nH]c2ccccc12
21 | 2.1 | 65 | 3 | NC1CCC(CC2CCC(N(Cc3c(F)cccc3F)C(=O)CCCc3c(Cc4ccc(O)cc4)[nH]c4ccccc34)CC2)CC1 (configuration not stated)
105 | 1.4 | 15 | 2.6 | NC1CCC(CC2CCC(N(Cc3ccccc3)C(=O)CCCc3c[nH]c4ccccc34)CC2)CC1 (stereo in doubt)
5.4 | 2.3 | 33 | 5.2 | NC1CCC(CC2CCC(N(C/C(Cl)=C/c3ccccc3)C(=O)CCCc3c[nH]c4ccccc34)CC2)CC1 (stereo in doubt; form 3)
33 | 21 | 30 | 164 | NCCCN(CCc1ccccc1)C(=O)CCCc1c[nH]c2ccccc12
10 | 2.8 | 29 | 2.1 | NC1CCCC(N(C/C(Cl)=C/c2ccccc2)C(=O)CCCc2c[nH]c3ccccc23)C1 (configuration not stated)
3.2 | 4 | 28 | 3.8 | NCCCCCCCN(Cc1ccccc1)C(=O)CCCc1c[nH]c2ccccc12
 | 2.5 | 28 | 7 | NC1CCC(CC2CCC(N(Cc3ccncc3)C(=O)CCCc3c[nH]c4ccccc34)CC2)CC1 (stereo in doubt; form 1)
44 | 4.5 | 278 | 12 | NC1CCC(CC2CCC(N(C(=O)CCCc3c[nH]c4ccccc34)C3CCc4ccccc4C3)CC2)CC1 (configuration not stated)
83 | 1.8 | 52 | 3 | NC1CCC(CC2CCC(N(Cc3c(F)cccc3F)C(=O)CCCc3c[nH]c4ccccc34)CC2)CC1 (configuration not stated)
8.7 | 2.7 | 24 | 3.6 | NCC1CCCC(CN(Cc2ccccc2)C(=O)CCCc2c[nH]c3ccccc23)C1 (configuration not stated)
7.5 | 1.5 | 17 | 4.9 | COc1ccccc1/C=C/CN(C(=O)CCCc1c[nH]c2ccccc12)C1CCC(CC2CCC(N)CC2)CC1 (stereo in doubt; form 1)
6.6 | 4.6 | 78 | 9.2 | NCCCN1CCN(CCCN(C/C(Cl)=C/c2ccccc2)C(=O)CCCc2c[nH]c3ccccc23)CC1
8 | 4.5 | 13 | 9.4 | NCCCCCN(CCc1ccc2ccccc2c1)C(=O)Cc1c[nH]c2ccccc12
8.9 | 17 | 201 | 4.5 | CSc1ccc(CN(C(=O)CCCc2c(Cc3ccc(O)cc3)[nH]c3ccccc23)C2CCC(CC3CCC(N)CC3)CC2)cc1 (configuration not stated)
9.1 | 1.5 | 25 | 3.7 | NCC1CCCC(CN(C/C(Cl)=C/c2ccccc2)C(=O)CCCc2c[nH]c3ccccc23)C1 (configuration not stated)
5.2 | 3.2 | 22 | 2.8 | NC1CCC(CC2CCC(N(Cc3ccccc3Cl)C(=O)CCCc3c[nH]c4ccccc34)CC2)CC1 (configuration not stated)

Ki [1] [µM] | Ki [2] [µM] | Ki [3] [µM] | Ki [4] [µM] | SMILES
15 | 19 | 57 | 179 | N=C(N)NCCN(Cc1ccc2ccccc2c1)C(=O)Cc1c[nH]c2ccccc12
20 | 3.9 | 18 | 14 | NCCCCCN(Cc1ccccc1)C(=O)[C@H](N)Cc1ccc(-c2ccccc2)cc1
8.3 | 8.3 | 204 | 179 | N=C(N)NCCN(Cc1ccc2ccccc2c1)C(=O)CCCc1c[nH]c2ccccc12
5.6 | 1.3 | 12 | 3.8 | CC1CC(CC2CCC(N(Cc3ccccc3)C(=O)CCCc3c[nH]c4ccccc34)C(C)C2)CCC1N (stereo in doubt; form 4)
7.3 | 14 | 58 | 62 | NCCCCCN(Cc1ccc2ccccc2c1)C(=O)CCc1c[nH]c2ccccc12
25 | 17 | 45 | 16 | NCCCN(Cc1ccccc1)C(=O)CCCc1c[nH]c2ccccc12
266 | 2 | 14 | 3.2 | COc1cc(Br)c(/C=C/CN(C(=O)CCCc2c[nH]c3ccccc23)C2CCC(CC3CCC(N)CC3)CC2)cc1OC (configuration not stated)
20 | 21 | 127 |  | NCCN(CCCc1ccccc1)C(=O)CCc1c[nH]c2ccccc12
89 | 9.3 | 44 | 67 | C/C(=C\c1ccccc1)CN(CCCN)C(=O)Cc1c[nH]c2ccccc12
6.1 | 1.9 | 7.5 | 6 | NC(N)=NCCCN(Cc1ccc2ccccc2c1)C(=O)CCCc1c[nH]c2ccccc12
5 | 1.6 | 31 | 4.1 | COc1ccccc1/C=C/CN(C(=O)CCCc1c[nH]c2ccccc12)C1CCC(CC2CCC(N)CC2)CC1 (stereo in doubt; form 2)
4.9 | 1.4 | 31 | 5.6 | NC1CCC(CC2CCC(N(C/C(Cl)=C/c3ccccc3)C(=O)CCCc3c[nH]c4ccccc34)CC2)CC1 (stereo in doubt; form 4)
19 | 18 | 61 |  | NCCCCCN(CCCc1ccccc1)C(=O)CCCc1c[nH]c2ccccc12
8.9 | 1.9 | 25 | 1.5 | COc1cc(Cl)c(CN(C(=O)CCCc2c[nH]c3ccccc23)C2CCC(CC3CCC(N)CC3)CC2)cc1OC (stereo in doubt; form 2)
2.2 | 4.7 | 147 | 1.9 | Cc1ccc(CN(C(=O)CCCc2c(Cc3ccc(O)cc3)[nH]c3ccccc23)C2CCC(CC3CCC(N)CC3)CC2)cc1 (configuration not stated)
31 | 2.9 | 46 | 9.8 | CC(Cc1ccccc1)CN(CCCCCCN)C(=O)c1cc2cc(O)ccc2[nH]1 (configuration not stated)
5.4 | 2.7 | 27 | 59 | NCCCCCN(C/C(Cl)=C\c1ccccc1)C(=O)/C=C/c1c[nH]c2ccccc12
27 | 3.6 | 134 | 66 | NCCN(Cc1ccc2ccccc2c1)C(=O)c1c[nH]c2ccccc12
 | 0.41 |  | 3.4 | NC1CCC(CC2CCC(N(C/C(Cl)=C/c3ccccc3)C(=O)COc3ccc4ccccc4c3)CC2)CC1 (stereo in doubt; form 3)
 | 0.96 |  | 4.4 | NC1CCC(CC2CCC(N(C/C(Cl)=C/c3ccccc3)C(=O)COc3ccc4ccccc4c3)CC2)CC1 (stereo in doubt; form 4)
 | 5.6 | 65 | 5.8 | NCCN(C/C(Cl)=C/c1ccccc1)C(=O)CCCc1c[nH]c2ccccc12
17 | 2.7 |  | 99 | C/C(=C/c1ccccc1)CN(CCCCCN)C(=O)/C=C/c1c[nH]c2ccccc12
 | 1.9 |  | 4.7 | NC1CCC(CC2CCC(N(C/C(Cl)=C/c3ccccc3)C(=O)COc3ccc4ccccc4c3)CC2)CC1 (stereo in doubt; form 1)
 | 1.9 |  | 5 | NC1CCC(CC2CCC(N(C/C(Cl)=C/c3ccccc3)C(=O)COc3ccc4ccccc4c3)CC2)CC1 (stereo in doubt; form 6)
 | 1.3 |  | 4 | NC1CCC(CC2CCC(N(C/C(Cl)=C/c3ccccc3)C(=O)COc3ccc4ccccc4c3)CC2)CC1 (stereo in doubt; form 7)
 | 22 | 49 | 21 | NCCN(Cc1ccccc1)C(=O)CCCc1c[nH]c2ccccc12
 | 3.7 |  | 7 | NCCCN(C(=O)CCc1c[nH]c2ccccc12)C1CCc2ccccc2C1 (configuration not stated)

Reference: ChEMBL document CHEMBL1149662, “Design and synthesis of a library of tertiary amides: evaluation as mimetics of the melanocortins' active core” (Bioorg Med Chem, 2007)
